Patent US10213428B2, “(4-((3R,4R)-3-methoxytetrahydro-pyran-4-ylamino)piperidin-1-yl)(5-methyl-6-(((2R,6S)-6-(p-tolyl)tetrahydro-2H-pyran-2-yl)methylamino)pyrimidin-4-yl)methanone citrate” (Centrexion Therapeutics Corporation, priority 2015, dated 2019)
“Also recorded” adds a separate entry of the source.

How the values were obtained:
[1] = X-ray powder diffraction: crystallinity and polymorphism; assay type: physicochemical; conditions: for indications for polymorphism: several crystallization experiments
Text: X-ray powder diagrams were generated using a STOE-STADI P-diffractometer in transmission mode fitted with a MYTHEN-detector and a Cu-anode as X-ray source with monochromatic CuKα1 radiation (λ=1.54056 Å, 40 kV, 40 mA).

[2] = Solubility, automated shake flask method with UV quantitation; assay type: physicochemical; conditions: for solubility at 2 h / solubility at 4 h / solubility at 6 h: thermodynamic from solid, room temperature
Method: Solubility was determined using an automated shake flask method (at room temperature) and quantitation of the dissolved drug substance was determined by UV-spectroscopy within this automated setup.

[3] = Dynamic vapour sorption (sorption isotherms, water uptake); assay type: physicochemical; conditions: for hygroscopic behavior: uptake of water: 25° C., citrate
Text: Sorption isotherms were generated using an IGAsorp water sorption monitor from Hiden Isochema. […] For BR salt form only: Sorption isotherms were registered on a DVS-1 water sorption monitor from Surface Measurement Systems.

[4] = ThermoGravimetry (loss on drying); assay type: physicochemical; conditions: TG
Text: Thermal gravimetry data were collected with a TG instrument from the Q-series of TA Instruments. This method measures weight changes in a material as a function of temperature under a controlled atmosphere.

[5] = Oral pharmacokinetics in rat; assay type: in vivo, Wistar(Han) rats; conditions: oral dose 20 μmol/kg of citrate salt 1, mean values
Text: The pharmacokinetics of the test compound following single intravenous (IV) or oral (PO) doses were examined in • female BALB/c mice (average weight: 25 g) • male Wistar(Han) rats (average weight: 260 g) • male and female Göttingen Minipigs (average weight: 24 kg) • male beagle dogs (average weight: 15 kg) All non-rodent species were fasted overnight prior to dosing, while mice and rats had food and water available ad libitum. The p.o. dose of the compound was usually administered as suspension in 0.5% Natrosol or as a 0.5% Natrosol/0.015% Tween 80 suspension. For i.v. dosing purposes, the doses were applied as a solution in 0.9% NaCL, or as a solution containing 9.1% HP-beta Cyclodextrin in water.
Blood was collected by venous sampling and soaking of the blood in EDTA coated tubes. Samples were collected for up to 48 h after administration of the test compound. Plasma was then separated by centrifugation (5 min by approximately 9000 g at 4° C.). For determination of the test compound, plasma was transferred into PCR plates. All samples were stored at approximately −20° C. until bioanalytics. The test compound concentrations in plasma were determined by HPLC MS/MS. The lower limit of quantification was between 0.5 nmol/L and 1 nmol/L.

[6] = listed as Citrate salt, citrate
[7] = male, Wistar(Han), plasma, 20 umol/kg

CO[C@H]1COCC[C@H]1NC1CCN(C(=O)c2ncnc(NC[C@H]3CCC[C@@H](c4ccc(C)cc4)O3)c2C)CC1.O=C(O)CC(O)(CC(=O)O)C(=O)O [citrate salt 1, (4-((3R,4R)-3-methoxytetrahydro-pyran-4-ylamino)piperidin-1-yl)(5-methyl-6-(((2R,6S)-6-(p-tolyl)tetrahydro-2H-pyran-2-yl)methylamino)pyrimidin-4-yl)methanone citrate]
crystallinity ([1]; listed as Citrate salt 1, citrate): highly crystalline
crystallinity [1, 6]: high
indications for polymorphism [1, 6]: no
indications for polymorphism ([1]; listed as citrate, citrate): Only one crystalline form; also recorded: only one polymorphic form
solubility at 2 h ([2]; Sörensen buffer, aqueous buffer, Sörensen pH 10, 2 h): > 1000 µg/mL
solubility at 4 h ([2]; Sörensen buffer, aqueous buffer, Sörensen pH 10, 4 h): > 1000 µg/mL
solubility at 6 h ([2]; Sörensen buffer, aqueous buffer, Sörensen pH 10, 6 h): > 1000 µg/mL
Solubility in aqueous media (in words) ([2]; acidic, neutral and basic aqueous media): highly soluble
solubility at 2 h ([2]; aqueous buffer, 0.1N NaOH, 2 h): > 1000 µg/mL
solubility at 4 h ([2]; aqueous buffer, 0.1N NaOH, 4 h): > 1000 µg/mL
solubility at 6 h ([2]; aqueous buffer, 0.1N NaOH, 6 h): > 1000 µg/mL
solubility at 2 h ([2]; aqueous buffer, KH2PO4-buffer pH 7.4, 2 h): > 1000 µg/mL
solubility at 4 h ([2]; aqueous buffer, KH2PO4-buffer pH 7.4, 4 h): > 1000 µg/mL
solubility at 6 h ([2]; aqueous buffer, KH2PO4-buffer pH 7.4, 6 h): > 1000 µg/mL
solubility at 2 h ([2]; aqueous buffer, McIlvaine buffer pH 2.2, 2 h): > 1000 µg/mL
solubility at 4 h ([2]; aqueous buffer, McIlvaine buffer pH 2.2, 4 h): > 1000 µg/mL
solubility at 6 h ([2]; aqueous buffer, McIlvaine buffer pH 2.2, 6 h): > 1000 µg/mL
solubility at 2 h ([2]; aqueous buffer, McIlvaine buffer pH 3.0, 2 h): > 1000 µg/mL
solubility at 4 h ([2]; aqueous buffer, McIlvaine buffer pH 3.0, 4 h): > 1000 µg/mL
solubility at 6 h ([2]; aqueous buffer, McIlvaine buffer pH 3.0, 6 h): > 1000 µg/mL
solubility at 2 h ([2]; aqueous buffer, McIlvaine buffer pH 4.0, 2 h): > 1000 µg/mL
solubility at 4 h ([2]; aqueous buffer, McIlvaine buffer pH 4.0, 4 h): > 1000 µg/mL
solubility at 6 h ([2]; aqueous buffer, McIlvaine buffer pH 4.0, 6 h): > 1000 µg/mL
solubility at 4 h ([2]; aqueous buffer, McIlvaine buffer pH 4.5, 4 h): > 1000 µg/mL
solubility at 6 h ([2]; aqueous buffer, McIlvaine buffer pH 4.5, 6 h): > 1000 µg/mL
solubility at 2 h ([2]; aqueous buffer, McIlvaine buffer pH 5.0, 2 h): > 1000 µg/mL
solubility at 4 h ([2]; aqueous buffer, McIlvaine buffer pH 5.0, 4 h): > 1000 µg/mL
solubility at 6 h ([2]; aqueous buffer, McIlvaine buffer pH 5.0, 6 h): > 1000 µg/mL
solubility at 2 h ([2]; aqueous buffer, McIlvaine buffer pH 6.0, 2 h): > 1000 µg/mL
solubility at 4 h ([2]; aqueous buffer, McIlvaine buffer pH 6.0, 4 h): > 1000 µg/mL
solubility at 6 h ([2]; aqueous buffer, McIlvaine buffer pH 6.0, 6 h): > 1000 µg/mL
solubility at 2 h ([2]; aqueous buffer, McIlvaine buffer pH 6.8, 2 h): > 1000 µg/mL
solubility at 4 h ([2]; aqueous buffer, McIlvaine buffer pH 6.8, 4 h): > 1000 µg/mL
solubility at 6 h ([2]; aqueous buffer, McIlvaine buffer pH 6.8, 6 h): > 1000 µg/mL
solubility at 2 h ([2]; aqueous buffer, McIlvaine buffer pH 7.4, 2 h): > 1000 µg/mL
solubility at 4 h ([2]; aqueous buffer, McIlvaine buffer pH 7.4, 4 h): > 1000 µg/mL
solubility at 6 h ([2]; aqueous buffer, McIlvaine buffer pH 7.4, 6 h): > 1000 µg/mL
solubility at 2 h ([2]; organic solvent or mixture, EtOH, 2 h): 9200 µg/mL
solubility at 4 h ([2]; organic solvent or mixture, EtOH, 4 h): 9800 µg/mL
solubility at 6 h ([2]; organic solvent or mixture, EtOH, 6 h): 10000 µg/mL
solubility at 2 h ([2]; simulated gastric fluid, 0.01N HCl, 2 h): > 1000 µg/mL
solubility at 4 h ([2]; simulated gastric fluid, 0.01N HCl, 4 h): > 1000 µg/mL
solubility at 6 h ([2]; simulated gastric fluid, 0.01N HCl, 6 h): > 1000 µg/mL
solubility at 2 h ([2]; simulated gastric fluid, 0.1N HCl, 2 h): > 1000 µg/mL
solubility at 4 h ([2]; simulated gastric fluid, 0.1N HCl, 4 h): > 1000 µg/mL
solubility at 6 h ([2]; simulated gastric fluid, 0.1N HCl, 6 h): > 1000 µg/mL
solubility at 2 h ([2]; Water, 2 h): > 1000 µg/mL
solubility at 4 h ([2]; Water, 4 h): > 1000 µg/mL
solubility at 6 h ([2]; Water, 6 h): > 1000 µg/mL
physical state after sorption experiment / at higher relative humidity ([3]; higher relative humidity, other salts starting at 60-70% relative humidity): still remains as solid material
hygroscopic behavior: uptake of water ([3]; up to 80% r.h. (humidity range 10-80%)): 2.6%
hygroscopic behavior: uptake of water ([3]; up to 80% r.h. (humidity range 10-80%), listed as Citrate salt): 2.6%
hygroscopic behavior: uptake of water ([3]; up to 80% r.h. (humidity range 10-80%), listed as citrate): 2.6%
hygroscopic behavior: uptake of water ([3]; up to 90% r.h.): 3.4%
hygroscopic behavior: uptake of water ([3]; up to 90% r.h., listed as Citrate salt): 3.4%
loss on drying [4]: 1.6%
AUC(0-inf) [5, 7]: 1.71 µM·h
Cmax [5, 7]: 454 nM
Tmax [5, 7]: 1.08 h
MRTtot [5]: 3.3 h
